Experimental data as given in patent US20240131013A1, “TETRAHYDRO-1H-PYRIDO[3,4-b]INDOLE ANTI-ESTROGENIC DRUGS” (Olema Pharmaceuticals, Inc., priority 2015, published 2024).
Entries after “also recorded” stand apart in the source; their conditions may differ.

Key:
[1] = system: AP activity in ECC-1 cells; assay: Alkaline phosphatase (AP) assay in ECC-1 uterine cells, agonist mode; assay type: cell-based, human; conditions: for Induction of AP activity in uterine cells (% E2): representative result; for Induction of Alkaline Phosphatase (AP) % E2: mean of n experiments; for AP Agonist Act. (% of E2): ECC-1 cells, without E2
Experimental: Method for performing the alkaline phosphatase (AP) assay. ECC-1 cells were trypsinized and resuspended in hormone-depleted media and plated at a density of 15k cells per well into a 96-well plate for at least 4 hours. Cells were treated with antiestrogens for 3 days and plates were subsequently frozen at −80° C. Thawed plates were incubated with a chromogenic substrate of AP, p-nitrophenyl phosphate (Thermo Fisher Scientific), for 40 minutes at 40° C. and absorbances were read at 405 nm. AP activity was normalized to the activity of E2 alone. […] A representative result for induction of AP activity in uterine cells (% E2) is shown below in tabular form: […]

[2] = system: AP activity in ECC-1 cells; assay: Alkaline phosphatase (AP) assay in ECC-1 uterine cells co-treated with 500 pM E2, antagonist mode; assay type: cell-based, human; conditions: for AP Antagonist Act. (% of E2): ECC-1 cells, co-treated with 500 pM E2
Experimental: Method for performing the alkaline phosphatase (AP) assay. ECC-1 cells were trypsinized and resuspended in hormone-depleted media and plated at a density of 15k cells per well into a 96-well plate for at least 4 hours. Cells were treated with antiestrogens for 3 days and plates were subsequently frozen at −80° C. […] AP activity was normalized to the activity of E2 alone.

ERα [3] = target: T1, ERα (Homo sapiens (Human), UniProt P03372); assay: ER degradation, immunoblot of MCF-7 protein extracts; assay type: cell-based; conditions: 100 nM, 24 hours
Experimental: MCF-7 cells were treated with 100 nM anti-estrogen for 24 hours in serum-free medium and protein extracts immunoblotted with D12 antibody to ERα and β-actin (Santa Cruz Biotechnology). The numbers below the blots represent the optical density of ERα bands of each treatment relative to percent vehicle after normalization to β-actin.
Target sequence in this assay (P03372 whole entry): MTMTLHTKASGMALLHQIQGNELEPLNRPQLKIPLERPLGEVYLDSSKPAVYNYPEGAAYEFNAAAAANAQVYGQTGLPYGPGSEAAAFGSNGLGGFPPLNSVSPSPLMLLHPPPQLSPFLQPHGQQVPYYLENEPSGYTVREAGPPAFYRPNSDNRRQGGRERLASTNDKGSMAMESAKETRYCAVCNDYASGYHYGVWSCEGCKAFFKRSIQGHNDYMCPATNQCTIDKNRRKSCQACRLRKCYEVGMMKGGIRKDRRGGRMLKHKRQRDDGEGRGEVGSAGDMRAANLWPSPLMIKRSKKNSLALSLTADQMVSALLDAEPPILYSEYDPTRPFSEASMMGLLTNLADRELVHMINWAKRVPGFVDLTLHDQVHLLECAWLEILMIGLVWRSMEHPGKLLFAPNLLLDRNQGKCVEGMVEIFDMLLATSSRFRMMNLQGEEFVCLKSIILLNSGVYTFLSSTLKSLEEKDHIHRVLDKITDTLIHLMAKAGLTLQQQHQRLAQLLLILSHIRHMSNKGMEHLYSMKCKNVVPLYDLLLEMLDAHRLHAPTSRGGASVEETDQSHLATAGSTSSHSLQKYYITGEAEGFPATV

ERα [4] = target: T1, ERα; assay: ERα levels in breast cells, in-cell western (Colorimetric In-Cell ELISA); assay type: cell-based
Experimental: IC50's were calculated using the least squares fit method. Error bars represent S.E.M from triplicate wells.
Target sequence in this assay (P03372 whole entry): as above

[5] = Pharmacokinetics in mice after oral gavage; assay type: in vivo, BALB/c female mice; conditions: 5 mg/kg oral gavage; for Oral drug exposure, free fraction taken into account: mice, 0-24 hours
Experimental: Pharmacokinetics were studied in BALB/c female mice. For each arm, three BALB/c female mice were given 5 mg/kg of compound in 0.5% CMC formulation by oral gavage. Concentration of compounds in mouse plasma and their metabolites were analyzed at each time point using LC-MS/MS. The concentrations were adjusted for the free fraction of drug in mouse plasma (method below). Area under the curve was calculated using the trapezoidal rule for 0-24 hours.

[6] = system: Clone 18 cells (MCF7/Her2/neu); assay: Xenograft study, MCF7/Her2/neu tumors in mice; assay type: in vivo, athymic ovariectomized nu/nu mice; conditions: oral gavage, doses as low as 10 mg/kg
Experimental: Xenograft studies were conducted by the Preclinical Therapeutics Core at the University of California, San Francisco in accordance with the Institutional Animal Care and Use Committee (IACUC) guidelines. Clone 18 cells (MCF7/Her2/neu) cells were grown in culture and implanted into athymic ovariectomized nu/nu mice. To stimulate tumor growth 0.36 mg estradiol 90 day release pellets (Innovative Research, Saratoga, FL) were implanted along with cells. When tumors reached 150-250 cubic millimeters the pellets were exchanged for 0.18 mg estradiol 90 day release pellets and divided into groups of six mice per treatment group. One of those groups received vehicle only (0.5% CMC+8% DMSO), and Compound B and Compound C each had 2 groups treated with either 10 or 100 mg/kg compound. Compounds were administered by oral gavage twice daily, except once daily on weekends/holidays for the first 21 days, and once daily after day 21. Tumors and bodyweight were measured twice weekly.

ERα [7] = target: T1, ERα; assay: ERα binding, LanthaScreen Competitive Binding Assay (TR-FRET)
From the text: Compounds were screened for their ability to displace a fluorescent labelled tracer ERα ligand via time resolved fluorescent energy transfer using the LanthaScreen Competitive Binding Assay screening service (Thermo Fisher Scientific).
Target sequence in this assay (P03372 whole entry, looked up): as the sequence (P03372 whole entry) above

PR = conditions: De Savi; cited from earlier work
[8] = system: estrogen-responsive reporter gene, ERE-tk109-Luc; assay: Inhibition of E2-induced transcription, ERE-tk109-Luc reporter in MCF-7 cells; assay type: cell-based; conditions: Homo sapiens, MCF7; read-out: Inhibition of E2-induced transcription in breast cells, IC50
Experimental: Representative compounds were tested for their inhibitory activity of estrogen according to the assay methods described in Hodges-Gallagher, L., Valentine, C. V., El Bader, S. and Kushner, P. J. (2007) “Histone Deacetylase Inhibitors Enhance the Efficacy of Hormonal Therapy Agents on Breast Cancer Cells and Blocks Anti-estrogen-Driven Uterine Cell Proliferation” Breast Cancer Res Treat, November; 105(3):297-309. Specifically, MCF-7 cells were transiently transfected with an estrogen-responsive reporter gene, ERE-tk109-Luc. Transfected cells were treated with antiestrogens in hormone-depleted medium in the presence of 100 pM 17β-estradiol (E2) for 22 hours. Luciferase activity was normalized to activity of E2 alone and IC50's were calculated using the least squares fit method.
A representative result for inhibition of E2-induced transcription in breast cells (nM) is shown below in tabular form: […]

[9] = 100 nM dose, mean of n experiments

Row | SMILES | Induction of AP activity in uterine cells (% E2) [1] | Residual AP activity with 100 nM compound plus E2 (% of E2 alone) ([2]; 100 nM antiestrogen, 500 pM E2) | Induction of Alkaline Phosphatase (AP) % E2 [1] | Residual AP activity with 100 nM compound plus E2 (% of E2 alone) [2, 9] | AP Agonist Act. (% of E2) [1] | AP Antagonist Act. (% of E2) [2] | other results
1 | Oc1ccc2c(c1)CC[C@H](c1ccccc1)[C@@H]2c1ccc(OCCN2CCCC2)cc1 [Lasofoxifene, reference compound] | 86 % E2 | 83 % E2 |  |  |  |  | 
2 | CCCN1CC(Oc2cc(F)c([C@@H]3c4[nH]c5ccccc5c4C[C@@H](C)N3CC(C)(C)F)c(F)c2)C1 [Goodacre Compound 107, (1R,3R)-1-(2,6-difluoro-4-((1-propylazetidin-3-yl)oxy)phenyl)-2-(2-fluoro-2-methylpropyl)-3-methyl-2,3,4,9-tetrahydro-1H-pyrido[3,4-b]indole, reference compound] |  |  | 0.00 % E2 | 1.03 % E2 |  |  | 
3 | CCCN1CC(Oc2ccc([C@@H]3c4[nH]c5ccccc5c4C[C@@H](C)N3CC(C)(C)F)cc2)C1 [Compound B, (1R,3R)-2-(2-fluoro-2-methylpropyl)-3-methyl-1-(4-((1-propylazetidin-3-yl)oxy)phenyl)-2,3,4,9-tetrahydro-1H-pyrido[3,4-b]indole] | 2.18 % E2 | 1.96 % E2 | 1.78 % E2 | 1.56 % E2 | 2.18 % of E2 | 1.96 % of E2 | Estrogen receptor degradation in MCF-7 cells (immunoblot, FIG. 7) (ERα [3]): degrades the estrogen receptor; Relative change in ERα levels in breast cells % Veh (ERα [4]): 45 % Veh; Relative change in ERα levels in breast cells pIC50 (ERα [4]): 8.57; Estrogen receptor degradation in MCF-7 cells (in-cell western, FIG. 2) (ERα [4]; 24 hours): degrades the estrogen receptor; Oral bioavailability and half-life ([5]; BALB/c mice): high oral bioavailability and half-life; Oral drug exposure, free fraction taken into account [5]: better 24 hour drug exposure compared to other compounds; also recorded: substantially higher oral drug exposure; AP activity of ECC-1 cells normalized to the effect of 500 pM 17β-estradiol ([1]; compound alone): 2.18%; AP activity of ECC-1 cells co-treated with 500 pM 17β-estradiol, % of the activity 17β-estradiol would produce ([2]; co-treated with 500 pM 17β-estradiol): 1.96%; Effect on tumor size in xenografted mice [6]: shrinks MCF-7 (HER2/neu) tumors; also recorded: outstandingly potent in shrinking human breast cancer xenografts; ERα binding activity in words (ERα [7]): comparable activity to fulvestrant, Goodacre Compound 102, and Goodacre Compound 107; ERα binding pIC50 (ERα [7]): 8.57
4 | C[C@]12CC[C@@H]3c4ccc(O)cc4C[C@@H](CCCCCCCCC[S+]([O-])CCCC(F)(F)C(F)(F)F)[C@H]3[C@@H]1CC[C@@H]2O (stereo partly shown) [Fulvestrant, reference compound] | −0.13 % E2 | −2.2 % E2 | −0.04 % E2 | −0.09 % E2 |  |  | 
5 | C[C@@H]1Cc2c([nH]c3ccccc23)[C@@H](c2ccc(/C=C/C(=O)O)cc2)N1CC(C)(C)F [WO 2014/191726 Example 2] |  |  |  |  |  |  | PR agonist pIC50 (PR): <5.5
6 | C[C@@H]1Cc2c([nH]c3ccccc23)[C@@H](c2c(F)cc(OCCN3CC(CF)C3)cc2F)N1CC(C)(C)F [Compound D, (1R,3R)-1-(2,6-difluoro-4-(2-(3-(fluoromethyl)azetidin-1-yl)ethoxy)phenyl)-2-(2-fluoro-2-methylpropyl)-3-methyl-2,3,4,9-tetrahydro-1H-pyrido[3,4-b]indole, reference compound] | 3.37 % E2 | 4.07 % E2 | 4.45 % E2 | 3.98 % E2 | 3.37 % of E2 | 4.07 % of E2 | 
7 | CCCN1CC(Oc2ccc([C@@H]3c4[nH]c5ccccc5c4C[C@@H](C)N3CC(C)(C)F)cc2F)C1 [Compound A, (1R,3R)-2-(2-fluoro-2-methylpropyl)-1-(3-fluoro-4-((1-propylazetidin-3-yl)oxy)phenyl)-3-methyl-2,3,4,9-tetrahydro-1H-pyrido[3,4-b]indole] | 3.96 % E2 | 3.15 % E2 |  |  | 3.96 % of E2 | 3.15 % of E2 | 
8 | C[C@@H]1Cc2c([nH]c3ccccc23)[C@@H](c2c(F)cc(/C=C/C(=O)O)cc2F)N1CC(C)(C)F [AZD9496, (E)-3-(3,5-Difluoro-4-((1R,3R)-2-(2-fluoro-2-methylpropyl)-3-methyl-2,3,4,9-tetrahydro-1H-pyrido[3,4-b]indol-1-yl)phenyl)acrylic Acid] | 35 % E2 |  | 39 % E2 |  | 35 % of E2 |  | Estrogen-like activity as AP agonist and antagonist in comparison to Compounds A-D ([1]; AP agonist and antagonist modes): approximately 10 fold; IC50 [8]: 1.3 nM
9 | C[C@@H]1Cc2c([nH]c3ccccc23)[C@@H](c2ccc(OCCN3CC(CF)C3)cc2)N1CC(C)(C)F [Compound C, (1R,3R)-2-(2-fluoro-2-methylpropyl)-1-(4-(2-(3-(fluoromethyl)azetidin-1-yl)ethoxy)phenyl)-3-methyl-2,3,4,9-tetrahydro-1H-pyrido[3,4-b]indole] | 3.1 % E2 | 2.5 % E2 | 1.71 % E2 | 1.76 % E2 | 3.1 % of E2 | 2.5 % of E2 | Relative change in ERα levels in breast cells % Veh (ERα [4]): 42 % Veh; Relative change in ERα levels in breast cells pIC50 (ERα [4]): 8.87; Oral drug exposure, free fraction taken into account [5]: substantially higher oral drug exposure; Effect on tumor size in xenografted mice [6]: outstandingly potent in shrinking human breast cancer xenografts; ERα binding activity in words (ERα [7]): comparable activity to fulvestrant, Goodacre Compound 102, and Goodacre Compound 107
